The values below come from patent US12565488B2, “Inhibitors of influenza virus replication” (COCRYSTAL PHARMA, INC., priority 2018, dated 2026).

The test system of this experiment is Influenza type A (strain A/PR/8/34, ATCC VR-95). As to the kind of experiment: Influenza antiviral assay: inhibition of virus-induced cytopathic effects (CPE) in MDCK cells, XTT dye reduction. The conditions noted are these: Influenza A virus, H1N1 / PR/8, MDCK, 96 h, Influenza A (H1N1) replication in MDCK cells, CPE reduction by XTT at 4 days post-infection; read-out: Influenza H1N1 affinity, EC50. In kind it is cell-based. On the technique in general: Protection from cytopathic effect is a common read-out in antiviral testing.
The term EC50 denotes the concentration that produces a half-maximal response. For `O=C(Nc1cccc(-c2ccccc2)c1)c1c(O)c(=O)ccn1NC1c2ccccc2COc2ccccc21` (centres unmarked) [Compound 30], the 50% effective concentration (EC50) is greater than 100 µM.

As to `CC(C)NC(=O)c1c(O)c(=O)ccn1N(C)C1c2ccccc2COc2ccccc21` (centres unmarked) [Compound 10], the EC50 is greater than 100 µM.

Turning to `CNC(=O)c1c(O)c(=O)ccn1NC(c1ccccc1)c1ccccc1` [Compound 61], the EC50 is greater than 100 µM.

As to `O=C(O)c1c(O)c(=O)ccn1NC1c2ccc(-c3ccccc3)cc2SCc2c1ccc(F)c2F` (centres unmarked) [Compound 114], the EC50 fell in the range of 10 to 100 µM.

In the case of `O=C(O)c1c(O)c(=O)ccn1CC1c2ccccc2SCc2c1ccc(F)c2F` (centres unmarked) [Compound 118], the 50% effective concentration (EC50) was greater than 100 µM.

For the compound `CNC(=O)c1c(O)c(=O)ccn1NC1CCOCc2ccccc21` (centres unmarked) [Compound 56], the half-maximal effective concentration (EC50) was greater than 100 µM.

With `O=C(Nc1ccc(O)cc1)c1c(O)c(=O)ccn1NC1c2ccccc2COc2ccccc21` (centres unmarked) [Compound 20], the concentration for a half-maximal effect (EC50) was greater than 100 µM.

In the case of `CC(C)c1ccc2c(c1)C(Nn1ccc(=O)c(O)c1C(=O)O)c1ccc(F)c(F)c1CS2` (centres unmarked) [Compound 113], the concentration giving a half-maximal response (EC50) was greater than 100 µM.

As to `O=C(O)c1c(O)c(=O)ccn1NC1c2ccccc2SCc2c1ccc(Cl)c2Cl` (centres unmarked) [Compound 94], the EC50 lay in the range of 0.1 to 1 µM.

`CNC(=O)c1c(O)c(=O)ccn1CC(c1ccccc1)c1ccccc1` [Compound 38]: the EC50 was greater than 100 µM.

In the case of `O=C(O)c1c(O)c(=O)ccn1NC1c2ccccc2COc2cc(Cl)c(Cl)cc21` (centres unmarked) [Compound 60], the EC50 is 10 to 100 µM.

On to `O=C(O)c1c(O)c(=O)ccn1NC1c2cc(Cl)ccc2COc2ccc(Cl)cc21` (centres unmarked) [Compound 58, 1-((2,9-dichloro-6,11-dihydrodibenzo[b,e]oxepin-11-yl)amino)-3-hydroxy-4-oxo-1,4-dihydropyridine-2-carboxylic acid], for which the half-maximal effective concentration (EC50) was in the range of 10 to 100 µM.

For the compound `CNC(=O)c1c(O)c(=O)ccn1NC1c2ccccc2CSc2cc(Cl)c(Cl)cc21` (centres unmarked) [Compound 79, 1-((2,3-dichloro-6,11-dihydrodibenzo[b,e]thiepin-11-yl)amino)-3-hydroxy-N-methyl-4-oxo-1,4-dihydropyridine-2-carboxamide], the half-maximal effective concentration (EC50) was greater than 100 µM.

As for `O=C(NCc1ccc(O)cc1)c1c(O)c(=O)ccn1NC1c2ccccc2COc2ccccc21` (centres unmarked) [Compound 32], the 50% effective concentration (EC50) is greater than 100 µM.

As to `CN(C1c2ccccc2COc2ccccc21)n1ccc(=O)c(O)c1` (centres unmarked) [Compound 28], the EC50 is greater than 100 µM.

On to `CNC(=O)c1c(O)c(=O)ccn1NC1c2ccccc2COc2cc(Cl)c(Cl)cc21` (centres unmarked) [Compound 76, 1-((2,3-dichloro-6,11-dihydrodibenzo[b,e]oxepin-11-yl)amino)-3-hydroxy-N-methyl-4-oxo-1,4-dihydropyridine-2-carboxamide], for which the EC50 is greater than 100 µM.

For `O=C(O)c1c(O)c(=O)ccn1NC1c2ccc(C(F)(F)F)cc2COc2ccccc21` (centres unmarked) [Compound 86], the EC50 is greater than 100 µM.

Take `CNC(=O)c1c(O)c(=O)ccn1NC1CCCN(C)c2ccccc21` (centres unmarked) [Compound 46]: the EC50 was greater than 100 µM.

With `O=C(Nc1cccc(C(F)(F)F)c1)c1c(O)c(=O)ccn1NC1c2ccccc2COc2ccccc21` (centres unmarked) [Compound 13, 1-((6,11-dihydrodibenzo[b,e]oxepin-11-yl)amino)-3-hydroxy-4-oxo-N-(3-(trifluoromethyl)phenyl)-1,4-dihydropyridine-2-carboxamide], the EC50 is 1 to 10 µM.

On to `O=C(NCc1cccc(C(F)(F)F)c1)c1c(O)c(=O)ccn1NC1c2ccccc2COc2ccccc21` (centres unmarked) [Compound 37], for which the 50% effective concentration (EC50) was greater than 100 µM.

Turning to `O=C(Nc1cccc(O)c1)c1c(O)c(=O)ccn1NC1c2ccccc2COc2ccccc21` (centres unmarked) [Compound 19], the concentration for a half-maximal effect (EC50) was greater than 100 µM.

Turning to `CN(C)C(=O)c1c(O)c(=O)ccn1NC1c2ccccc2COc2ccccc21` (centres unmarked) [Compound 5], the EC50 was greater than 100 µM.

Consider `CNC(=O)c1c(O)c(=O)ccn1CC1c2ccccc2COc2ccccc21` (centres unmarked) [Compound 52], for which the concentration for a half-maximal effect (EC50) is greater than 100 µM.

For the compound `O=C(O)c1c(O)c(=O)ccn1NC(c1ccccc1)c1cccc2ccccc12` (centres unmarked) [Compound 112], the EC50 is 10 to 100 µM.

For `CNC(=O)c1c(O)c(=O)ccn1NC1c2ccccc2OCc2c(F)cccc21` (centres unmarked) [Compound 74], the EC50 is greater than 100 µM.

In the case of `O=C(Nc1ccccc1)c1c(O)c(=O)ccn1CC1c2ccccc2COc2ccccc21` (centres unmarked) [Compound 49], the concentration for a half-maximal effect (EC50) was greater than 100 µM.

Consider `O=C(O)c1c(O)c(=O)ccn1NC1c2ccccc2SCc2c1cccc2N1CCCC1=O` (centres unmarked) [Compound 128], for which the EC50 is 1 to 10 µM.

For `CNC(=O)c1cn(NC2c3ccccc3COc3ccccc32)c(C(=O)NC)c(O)c1=O` (centres unmarked) [Compound 103], the EC50 is greater than 100 µM.

With `O=C(O)c1c(O)c(=O)ccn1NC1c2ccc(F)c(F)c2COc2c1ccc(F)c2F` (centres unmarked) [Compound 80], the concentration for a half-maximal effect (EC50) lay within 1 to 10 µM.

As to `CNC(=O)c1c(O)c(=O)ccn1NC1CCCN(Cc2ccccc2)c2ccccc21` (centres unmarked) [Compound 54], the half-maximal effective concentration (EC50) is greater than 100 µM.

Consider `O=C(Nc1cccc2ccccc12)c1c(O)c(=O)ccn1NC1c2ccccc2COc2ccccc21` (centres unmarked) [Compound 21], for which the half-maximal effective concentration (EC50) was greater than 100 µM.

For the compound `O=C(NCc1cccc(O)c1)c1c(O)c(=O)ccn1NC1c2ccccc2COc2ccccc21` (centres unmarked) [Compound 29], the EC50 was greater than 100 µM.

Regarding `COc1ccc2c(c1)C(Nn1ccc(=O)c(O)c1C(=O)O)c1ccccc1CS2` (centres unmarked) [Compound 115], the concentration for a half-maximal effect (EC50) was greater than 100 µM.

In the case of `COC(=O)c1c(O)c(=O)ccn1NC1CCCN(Cc2ccc(OC)cc2)c2ccccc21` (centres unmarked) [Compound 9], the EC50 is greater than 100 µM.

On to `O=c1ccn(NC2c3ccccc3SCc3c2ccc(F)c3F)cc1O` (centres unmarked) [Compound 43, 1-((7,8-difluoro-6,11-dihydrodibenzo[b,e]thiepin-11-yl)amino)-3-hydroxypyridin-4(1H)-one], for which the EC50 is greater than 100 µM.

Regarding `O=C(NCc1cccc2ccccc12)c1c(O)c(=O)ccn1NC1c2ccccc2COc2ccccc21` (centres unmarked) [Compound 24], the 50% effective concentration (EC50) was greater than 100 µM.

As to `O=C(NCc1ccc(C(F)(F)F)cc1)c1c(O)c(=O)ccn1NC1c2ccccc2COc2ccccc21` (centres unmarked) [Compound 31], the EC50 is greater than 100 µM.

With `CNC(=O)c1c(O)c(=O)ccn1NC(c1cccc2ccccc12)c1cccc2ccccc12` [Compound 69], the EC50 was greater than 100 µM.

Take `O=C(O)c1cn(NC2c3ccccc3SCc3c2ccc(F)c3F)cc(O)c1=O` (centres unmarked) [Compound 120]: the EC50 lay within 1 to 10 µM.

Turning to `O=C(O)c1c(O)c(=O)ccn1NC1c2ccccc2CSc2cc(F)c(F)cc21` (centres unmarked) [Compound 88], the EC50 is 10 to 100 µM.

With `O=c1ccn(N(Cc2ccccc2)C2c3ccccc3COc3ccccc32)cc1O` (centres unmarked) [Compound 27], the EC50 was greater than 100 µM.

On to `O=C(NOCc1ccccc1)c1c(O)c(=O)ccn1NC1c2ccccc2SCc2c1ccc(F)c2F` (centres unmarked) [Compound 130, N-(benzyloxy)-1-((7,8-difluoro-6,11-dihydrodibenzo[b,e]thiepin-11-yl)amino)-3-hydroxy-4-oxo-1,4-dihydropyridine-2-carboxamide], for which the half-maximal effective concentration (EC50) fell in the range of 1 to 10 µM.

On to `O=C(O)c1c(O)c(=O)ccn1NC1c2ccc(F)c(F)c2CSc2c(-c3ccccc3)cccc21` (centres unmarked) [Compound 121], for which the EC50 was greater than 100 µM.

Turning to `O=C(O)c1c(O)c(=O)ccn1NC(c1ccc2ccccc2c1)c1ccc2ccccc2c1` [Compound 100], the EC50 is greater than 100 µM.

Turning to `O=C(O)c1c(O)c(=O)ccn1NC1c2ccc(F)c(F)c2CSc2c1ccc(F)c2F` (centres unmarked) [Compound 93], the half-maximal effective concentration (EC50) is 1 to 10 µM.

On to `O=C(O)c1c(O)c(=O)ccn1NC1c2ccccc2COc2ccccc21` (centres unmarked) [Compound 2, 1-((6,11-dihydrodibenzo[b,e]oxepin-11-yl)amino)-3-hydroxy-4-oxo-1,4-dihydropyridine-2-carboxylic acid], for which the EC50 lay in the range of 10 to 100 µM.

For `O=C(O)c1c(O)c(=O)ccn1NC1c2cc(F)c(F)cc2CSc2ccccc21` (centres unmarked) [Compound 95], the EC50 lay within 1 to 10 µM.

On to `O=c1ccn(NC2CCOCc3ccccc32)cc1O` (centres unmarked) [Compound 12], for which the EC50 is greater than 100 µM.

Turning to `O=C(O)c1c(O)c(=O)ccn1NC1c2ccccc2CSc2c1ccc(Cl)c2Cl` (centres unmarked) [Compound 87], the EC50 was 1 to 10 µM.

In the case of `O=C(O)c1c(O)c(=O)ccn1NC1c2ccc(C(F)(F)F)cc2COc2cc(C(F)(F)F)ccc21` (centres unmarked) [Compound 110], the EC50 is greater than 100 µM.

Regarding `O=C(Nc1ccc2ccccc2c1)c1c(O)c(=O)ccn1NC1c2ccccc2COc2ccccc21` (centres unmarked) [Compound 47], the concentration for a half-maximal effect (EC50) was greater than 100 µM.

`CNC(=O)c1c(O)c(=O)ccn1NC1c2ccccc2CSc2cc(F)c(F)cc21` (centres unmarked) [Compound 78]: the EC50 fell in the range of 1 to 10 µM.

For the compound `O=C(Nc1cccc(C(F)(F)F)c1)c1c(O)c(=O)ccn1CC1c2ccccc2COc2ccccc21` (centres unmarked) [Compound 48], the EC50 was greater than 100 µM.

On to `O=C(O)c1c(O)c(=O)ccn1NC(c1ccccc1)c1ccccc1` [Compound 67], for which the 50% effective concentration (EC50) was greater than 100 µM.

Take `O=C(NCc1ccccc1)c1c(O)c(=O)ccn1CC1c2ccccc2COc2ccccc21` (centres unmarked) [Compound 51]: the half-maximal effective concentration (EC50) was greater than 100 µM.

Consider `O=C(NCCOCCO)c1c(O)c(=O)ccn1NC1CCCNc2ccccc21` (centres unmarked) [Compound 8], for which the EC50 was greater than 100 µM.
